Data published in article PMC2171590 (The Journal of Cell Biology, 2005).
One block for each compound: values may come before it.

Key:
[1] = target: GST-tagged Las17WCA (S. cerevisiae); assay: pull-down
Arp2/3 complex (yeast) [2] = target: Arp2/3 complex (yeast) (Saccharomyces cerevisiae, UniProt P32381+P47117); assay: fluorescence increase titration, one-site fit; format: binding
Arp2/3 complex (yeast) [3] = target: Arp2/3 complex (yeast) (Saccharomyces cerevisiae, UniProt P32381+P47117, P32381:D10A); assay: fluorescence increase titration, one-site fit; format: binding
Arp2/3 complex (yeast) [4] = target: Arp2/3 complex (yeast) (Saccharomyces cerevisiae, UniProt P32381+P47117, P32381:G305Y); assay: fluorescence increase titration, one-site fit; format: binding
Arp2/3 complex (yeast) [5] = target: Arp2/3 complex (yeast) (Saccharomyces cerevisiae, UniProt P32381+P47117, P47117:D12A); assay: fluorescence increase titration, one-site fit; format: binding
Arp2/3 complex (yeast) [6] = target: Arp2/3 complex (yeast) (Saccharomyces cerevisiae, UniProt P32381+P47117, P47117:F362A); assay: fluorescence increase titration, one-site fit; format: binding
Arp2/3 complex (yeast) [7] = target: Arp2/3 complex (yeast) (Saccharomyces cerevisiae, UniProt P32381+P47117, P47117:G358Y); assay: fluorescence increase titration, one-site fit; format: binding
Arp2/3 complex (yeast) [8] = target: Arp2/3 complex (yeast) (Saccharomyces cerevisiae, UniProt P32381+P47117, P32381:Y309A); assay: fluorescence increase titration, one-site fit; format: binding

GST-tagged Las17WCA (S. cerevisiae), sequence (Q12446 whole entry): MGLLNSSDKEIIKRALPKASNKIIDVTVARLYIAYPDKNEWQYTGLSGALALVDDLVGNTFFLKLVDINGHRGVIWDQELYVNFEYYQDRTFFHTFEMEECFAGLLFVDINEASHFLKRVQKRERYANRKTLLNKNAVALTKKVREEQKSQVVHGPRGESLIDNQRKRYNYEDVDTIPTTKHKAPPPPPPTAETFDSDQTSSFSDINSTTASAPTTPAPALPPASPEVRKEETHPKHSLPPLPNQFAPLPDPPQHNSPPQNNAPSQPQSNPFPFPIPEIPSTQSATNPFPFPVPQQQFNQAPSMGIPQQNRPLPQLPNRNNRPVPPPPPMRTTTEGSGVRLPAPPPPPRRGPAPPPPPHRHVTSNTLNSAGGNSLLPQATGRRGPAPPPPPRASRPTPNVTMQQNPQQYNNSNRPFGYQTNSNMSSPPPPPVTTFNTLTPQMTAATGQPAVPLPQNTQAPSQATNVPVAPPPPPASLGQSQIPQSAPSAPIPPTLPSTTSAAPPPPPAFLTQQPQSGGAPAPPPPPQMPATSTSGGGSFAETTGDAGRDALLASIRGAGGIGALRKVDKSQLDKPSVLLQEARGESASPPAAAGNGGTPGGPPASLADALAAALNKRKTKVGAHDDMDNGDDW

Kd [1]: 4.5 µM
Compound: wild-type yeast Arp2/3 complex (from UniProt P32381 1-391; P47117 1-449; P38328 1-384; Q05933 1-178; P40518 1-154)

Kd [1]: 4.5 µM
Compound: arp3-G302Y Arp2/3 complex (from UniProt P32381 1-391; P38328 1-384; Q05933 1-178; P40518 1-154)

Kd [1]: 3.9 µM
Compound: arp2-G302Y Arp2/3 complex (from UniProt P47117 1-449; P38328 1-384; Q05933 1-178; P40518 1-154)

Kd (Arp2/3 complex (yeast) [2]): 2.3 ± 0.1 µM | Kd (Arp2/3 complex (yeast) [3]): 2 ± 0.1 µM | Kd (Arp2/3 complex (yeast) [4]): 1.8 ± 0.1 µM | Kd (Arp2/3 complex (yeast) [5]): 34.5 ± 2.2 µM | Kd (Arp2/3 complex (yeast) [6]): 16.7 ± 4.2 µM | Kd (Arp2/3 complex (yeast) [7]): 22 ± 4.4 µM | Kd (Arp2/3 complex (yeast) [8]): 2.4 ± 0.2 µM
Compound: O=P(O)(O)OP(=O)(O)OP(=O)(O)OC[C@H]1O[C@@H](n2cnc3c2ncn2ccnc32)[C@H](O)[C@@H]1O [etheno-ATP]
